Source: patent US20230151025A1, “SUBSTITUTED THIAZOLOPYRIDINES, SALTS THEREOF AND THEIR USE AS HERBICIDALLY ACTIVE SUBSTANCES” (Bayer Aktiengesellschaft, priority 2020, published 2023)

test system: Alopecurus myosuroides (ALOMY); assay: Herbicidal pre-emergence action (A), 1280 g/ha; format: in vivo; conditions: visual grading after ca. 3 weeks vs untreated controls, 100% = plants have died off, 0% = as control plants
In short: (§1)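 Visual grading of plant damage in percent (0% as untreated control, 100% dead) was done about 3 weeks after treatment. Compounds, as WP or EC in water with 0.5% additive, had been sprayed at 600 l/ha onto the covering soil of freshly sown sandy loam pots.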

| SMILES | ALOMY, herbicidal effect in percent (%) |
| --- | --- |
| CCc1cc2scnc2nc1-c1ccccc1OC [Example I-111] | 90% |
| CCc1cc2scnc2nc1C1=CCCCC1 [Example I-145] | 100% |

test system: Amaranthus retroflexus (AMARE); assay: Herbicidal pre-emergence action (A), 1280 g/ha; format: in vivo; conditions: visual grading after ca. 3 weeks vs untreated controls
In short: as §1

| SMILES | herbicidal effect AMARE |
| --- | --- |
| Cc1cc2sc(S(C)(=O)=O)nc2nc1-c1ccccc1F [Example I-021] | 100% |
| Cc1cc2sc([S+](C)[O-])nc2nc1-c1ccccc1 (stereo not drawn) [Example I-092] | 90% |
| CCc1cc2scnc2nc1-c1ccccc1OC [Example I-111] | 90% |
| CCc1cc2scnc2nc1C1=CCCCC1 [Example I-145] | 100% |

test system: Digitaria sanguinalis (DIGSA); assay: Herbicidal pre-emergence action (A), 1280 g/ha; format: in vivo; conditions: visual grading after ca. 3 weeks vs untreated controls, 100% = plants have died off, 0% = as control plants
In short: as §1

| SMILES | DIGSA, herbicidal effect in percent (%) |
| --- | --- |
| CCc1cc2scnc2nc1-c1ccccc1OC [Example I-111] | 100% |
| CCc1cc2scnc2nc1C1=CCCCC1 [Example I-145] | 100% |

test system: Echinochloa crus-galli (ECHCG); assay: Herbicidal pre-emergence action (A), 1280 g/ha; format: in vivo; conditions: visual grading after ca. 3 weeks vs untreated controls, 100% = plants have died off, 0% = as control plants
In short: as §1

| SMILES | ECHCG, herbicidal effect in percent (%) |
| --- | --- |
| CCc1cc2scnc2nc1-c1ccccc1OC [Example I-111] | 100% |
| CCc1cc2scnc2nc1C1=CCCCC1 [Example I-145] | 100% |

test system: Kochia scoparia (KCHSC; Bassia scoparia); assay: Herbicidal pre-emergence action (A), 1280 g/ha; format: in vivo; conditions: visual grading after ca. 3 weeks vs untreated controls
In short: as §1

| SMILES | herbicidal effect KCHSC |
| --- | --- |
| Cc1cc2sc(S(C)(=O)=O)nc2nc1-c1ccccc1F [Example I-021] | 90% |
| CCc1cc2scnc2nc1-c1ccccc1OC [Example I-111] | 100% |
| CCc1cc2scnc2nc1C1=CCCCC1 [Example I-145] | 90% |

test system: Lolium rigidum (LOLRI); assay: Herbicidal pre-emergence action (A), 1280 g/ha; format: in vivo; conditions: visual grading after ca. 3 weeks vs untreated controls, 100% = plants have died off, 0% = as control plants
In short: as §1

| SMILES | LOLRI, herbicidal effect in percent (%) |
| --- | --- |
| Cc1cc2sc(S(C)(=O)=O)nc2nc1-c1ccccc1F [Example I-021] | 100% |
| CCc1cc2scnc2nc1-c1ccccc1OC [Example I-111] | 100% |
| CCc1cc2scnc2nc1C1=CCCCC1 [Example I-145] | 100% |

test system: Matricaria inodora (MATIN); assay: Herbicidal pre-emergence action (A), 1280 g/ha; format: in vivo; conditions: visual grading after ca. 3 weeks vs untreated controls
In short: as §1

| SMILES | herbicidal effect MATIN |
| --- | --- |
| CCc1cc2scnc2nc1-c1ccccc1OC [Example I-111] | 90% |
| CCc1cc2scnc2nc1C1=CCCCC1 [Example I-145] | 90% |

test system: Poa annua (POAAN); assay: Herbicidal pre-emergence action (A), 1280 g/ha; format: in vivo; conditions: visual grading after ca. 3 weeks vs untreated controls, 100% = plants have died off, 0% = as control plants
In short: as §1

| SMILES | POAAN, herbicidal effect in percent (%) |
| --- | --- |
| Cc1cc2sc(S(C)(=O)=O)nc2nc1-c1ccccc1F [Example I-021] | 100% |
| Cc1cc2sc([S+](C)[O-])nc2nc1-c1ccccc1 (stereo not drawn) [Example I-092] | 90% |
| CCc1cc2scnc2nc1-c1ccccc1OC [Example I-111] | 100% |
| CCc1cc2scnc2nc1C1=CCCCC1 [Example I-145] | 100% |

test system: Setaria viridis (SETVI); assay: Herbicidal pre-emergence action (A), 1280 g/ha; format: in vivo; conditions: visual grading after ca. 3 weeks vs untreated controls
In short: as §1

| SMILES | herbicidal effect SETVI |
| --- | --- |
| Cc1cc2sc(S(C)(=O)=O)nc2nc1-c1ccccc1F [Example I-021] | 100% |
| CCc1cc2scnc2nc1-c1ccccc1OC [Example I-111] | 100% |
| CCc1cc2scnc2nc1C1=CCCCC1 [Example I-145] | 100% |

test system: Stellaria media (STEME); assay: Herbicidal pre-emergence action (A), 1280 g/ha; format: in vivo; conditions: visual grading after ca. 3 weeks vs untreated controls
In short: as §1

| SMILES | herbicidal effect STEME |
| --- | --- |
| Cc1cc2sc(S(C)(=O)=O)nc2nc1-c1ccccc1F [Example I-021] | 100% |
| Cc1cc2sc([S+](C)[O-])nc2nc1-c1ccccc1 (stereo not drawn) [Example I-092] | 90% |
| CCc1cc2scnc2nc1-c1ccccc1OC [Example I-111] | 100% |
| CCc1cc2scnc2nc1C1=CCCCC1 [Example I-145] | 90% |

test system: Veronica persica (VERPE); assay: Herbicidal pre-emergence action (A), 1280 g/ha; format: in vivo; conditions: visual grading after ca. 3 weeks vs untreated controls
In short: as §1

| SMILES | herbicidal effect VERPE |
| --- | --- |
| Cc1cc2sc(S(C)(=O)=O)nc2nc1-c1ccccc1F [Example I-021] | 90% |
| Cc1cc2sc([S+](C)[O-])nc2nc1-c1ccccc1 (stereo not drawn) [Example I-092] | 90% |
| CCc1cc2scnc2nc1-c1ccccc1OC [Example I-111] | 90% |
| CCc1cc2scnc2nc1C1=CCCCC1 [Example I-145] | 100% |

test system: Abutilon theophrasti (ABUTH); assay: Herbicidal post-emergence action (B), 1280 g/ha; format: in vivo; conditions: rated visually after about 3 weeks vs untreated controls
In short: (§2)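 Greenhouse-grown weeds at the one-leaf stage received a foliar spray of the formulated compound (WP or EC, 0.5% additive, 600 L/ha). Damage was scored visually after about 3 weeks on a 0–100% scale against untreated plants.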

| SMILES | herbicidal activity ABUTH |
| --- | --- |
| Cc1cc2sc([S+](C)[O-])nc2nc1-c1ccccc1 (stereo not drawn) [Example I-092] | 90% |

test system: Alopecurus myosuroides (ALOMY); assay: Herbicidal post-emergence action (B), 1280 g/ha; format: in vivo; conditions: rated visually after about 3 weeks vs untreated controls
In short: as §2

| SMILES | herbicidal activity ALOMY |
| --- | --- |
| CCc1cc2scnc2nc1C1=CCCCC1 [Example I-145] | 100% |

test system: Amaranthus retroflexus (AMARE); assay: Herbicidal post-emergence action (B), 1280 g/ha; format: in vivo; conditions: rated visually after about 3 weeks vs untreated controls
In short: as §2

| SMILES | herbicidal activity AMARE |
| --- | --- |
| Cc1cc2sc(S(C)(=O)=O)nc2nc1-c1ccccc1F [Example I-021] | 90% |
| Cc1cc2sc([S+](C)[O-])nc2nc1-c1ccccc1 (stereo not drawn) [Example I-092] | 100% |
| CCc1cc2scnc2nc1-c1ccccc1OC [Example I-111] | 100% |
| CCc1cc2scnc2nc1C1=CCCCC1 [Example I-145] | 100% |

test system: Digitaria sanguinalis (DIGSA); assay: Herbicidal post-emergence action (B), 1280 g/ha; format: in vivo; conditions: rated visually after about 3 weeks vs untreated controls
In short: as §2

| SMILES | herbicidal activity DIGSA |
| --- | --- |
| Cc1cc2sc([S+](C)[O-])nc2nc1-c1ccccc1 (stereo not drawn) [Example I-092] | 100% |
| CCc1cc2scnc2nc1-c1ccccc1OC [Example I-111] | 100% |
| CCc1cc2scnc2nc1C1=CCCCC1 [Example I-145] | 100% |

test system: Echinochloa crus-galli (ECHCG); assay: Herbicidal post-emergence action (B), 1280 g/ha; format: in vivo; conditions: rated visually after about 3 weeks vs untreated controls
In short: as §2

| SMILES | herbicidal activity ECHCG |
| --- | --- |
| CCc1cc2scnc2nc1C1=CCCCC1 [Example I-145] | 100% |

test system: Kochia scoparia (KCHSC; Bassia scoparia); assay: Herbicidal post-emergence action (B), 1280 g/ha; format: in vivo; conditions: not given
In short: as §2

| SMILES | herbicidal effect KCHSC |
| --- | --- |
| Cc1cc2sc(S(C)(=O)=O)nc2nc1-c1ccccc1F [Example I-021] | 100% |
| Cc1cc2sc([S+](C)[O-])nc2nc1-c1ccccc1 (stereo not drawn) [Example I-092] | 100% |
| CCc1cc2scnc2nc1-c1ccccc1OC [Example I-111] | 100% |
| CCc1cc2scnc2nc1C1=CCCCC1 [Example I-145] | 90% |

test system: Matricaria inodora (MATIN); assay: Herbicidal post-emergence action (B), 1280 g/ha; format: in vivo; conditions: rated visually after about 3 weeks vs untreated controls
In short: as §2

| SMILES | herbicidal activity MATIN |
| --- | --- |
| Cc1cc2sc(S(C)(=O)=O)nc2nc1-c1ccccc1F [Example I-021] | 100% |

test system: Poa annua (POAAN); assay: Herbicidal post-emergence action (B), 1280 g/ha; format: in vivo; conditions: rated visually after about 3 weeks vs untreated controls
In short: as §2

| SMILES | herbicidal activity POAAN |
| --- | --- |
| Cc1cc2sc(S(C)(=O)=O)nc2nc1-c1ccccc1F [Example I-021] | 100% |
| CCc1cc2scnc2nc1-c1ccccc1OC [Example I-111] | 100% |

test system: Stellaria media (STEME); assay: Herbicidal post-emergence action (B), 1280 g/ha; format: in vivo; conditions: not given
In short: as §2

| SMILES | herbicidal effect STEME |
| --- | --- |
| CCc1cc2scnc2nc1-c1ccccc1OC [Example I-111] | 90% |
| CCc1cc2scnc2nc1C1=CCCCC1 [Example I-145] | 100% |

test system: Veronica persica (VERPE); assay: Herbicidal post-emergence action (B), 1280 g/ha; format: in vivo; conditions: not given
In short: as §2

| SMILES | herbicidal effect VERPE |
| --- | --- |
| Cc1cc2sc([S+](C)[O-])nc2nc1-c1ccccc1 (stereo not drawn) [Example I-092] | 90% |
| CCc1cc2scnc2nc1-c1ccccc1OC [Example I-111] | 90% |
| CCc1cc2scnc2nc1C1=CCCCC1 [Example I-145] | 100% |

test system: Setaria viridis (SETVI); assay: Herbicidal pre-emergence action (C), 320 g/ha; format: in vivo; conditions: ca. 3 weeks
Text: (§3) ABUTH: Abutilon theophrasti AGSTE: Agrostis tenuis ALOMY: Alopecurus myosuroides AMARE Amaranthus retroflexus DIGSA: Digitaria sanguinalis ECHCG: Echinochloa crus-galli KCHSC: Kochia scoparia LOLRI: Lolium rigidum MATIN: Matricaria inodora POAAN: Poa annua POLCO: Polygonum convolvulus SETVI: Setaria viridis STEME: Stellaria media VERPE: Veronica persica VIOTR: Viola tricolor
Seeds of mono- and dicotyledonous weed plants and crop plants were sown, in plastic or organic planting pots, in sandy loam and covered with soil. The compounds according to the invention, formulated in the form of wettable powders (WP) or as emulsifiable concentrates (EC), were applied to the surface of the covering soil as aqueous suspension or emulsion, with the addition of 0.5% of an additive, at an application rate of 600 l of water/ha (converted).
Following treatment, the pots were placed in a greenhouse and kept under optimum growth conditions for the test plants. The visual grading of the damage to the test plants was carried out after ca. 3 weeks in comparison to untreated controls (herbicidal effect in percent (%): 100% effect=plants have died off, 0% effect=as control plants).
Tables C1 to C13 below show the effects of selected compounds of the general formula (I) according to table 1 on various harmful plants and an application rate corresponding to 320 g/ha obtained by the experimental procedure mentioned above.

| SMILES | herbicidal effect SETVI |
| --- | --- |
| CCc1cc2scnc2nc1C1=CCCCC1 [Example I-145] | 90% |

test system: Veronica persica (VERPE); assay: Herbicidal post-emergence action (D), 320 g/ha; format: in vivo; conditions: ca. 3 weeks
Text: as §3
Seeds of mono- and dicotyledonous weed plants and crop plants were sown, in plastic or organic planting pots, in sandy loam, covered with soil and grown in a greenhouse under controlled growth conditions. 2 to 3 weeks after sowing, the test plants were sprayed in the single-leaf stage. The compounds according to the invention, formulated in form of wettable powders (WP) or as emulsifiable concentrates (EC), were sprayed onto the green plant parts as aqueous suspension or emulsion, with the addition of 0.5% of an additive, at an application rate of 600 l of water/ha (converted). The test plants were placed in the greenhouse for ca. 3 weeks under optimum growth conditions, and then the effect of the preparations was assessed visually in comparison with untreated controls (herbicidal effect in percent (%): 100% effect=plants have died off, 0% effect=as control plants).
Tables D1 to D13 below show the effects of selected compounds of the general formula (I) according to table 1 on various harmful plants and an application rate corresponding to 320 g/ha obtained by the experimental procedure mentioned above.

| SMILES | herbicidal effect VERPE |
| --- | --- |
| CCc1cc2scnc2nc1-c1ccccc1OC [Example I-111] | 80% |
